Patent publication US20150296790A1, “SILICON-CONTAINING COMPOUND AQUEOUS SOLUTION AND ANTIBACTERIAL/ANTIVIRAL AGENT INCLUDING SAID SOLUTION” (JEX CO., LTD., priority 2012, published 2015)

Experiment: Solubility of Silicon-Containing Compound E in aqueous CD solutions (clarity and stability, visual)
Format: physicochemical
Set-up: key to Solubility of Compound E: Stability: OK: When the aqueous solutions of the CD and the Silicon-Containing Compound E did not exhibit the conditions such as presence of precipitates and deposits, the solutions were considered as stable; NG: When the aqueous solutions of the CD and the Silicon-Containing Compound E exhibited the conditions such as presence of precipitates and deposits, the solutions were not considered as stable; key to Solubility of Compound E: Clarity: When the aqueous solutions of the CD and the Silicon-Containing Compound E were clear, the solutions were rated as “OK”; When the aqueous solutions of the CD and the Silicon-Containing Compound E were not clear, the solutions were rated as “NG”
Settings: purified water
Experimental: To determine “Solubility of Compound E” in the tables, the Silicon-Containing Compound E as another solute was added at respective ratios shown in the respective tables (see “Ratio of Compound E” in the tables) to the respective aqueous CD solutions after evaluation of the solubility of CD, and then the mixture was stirred on a shaker to prepare the respective aqueous solutions of the CD and the Silicon-Containing Compound E. Immediately after preparation of the aqueous solutions of the CD and the Silicon-Containing Compound E, the clarity of the aqueous solutions was visually evaluated. When the aqueous solutions of the CD and the Silicon-Containing Compound E were clear, the solutions were rated as “OK”. When the aqueous solutions of the CD and the Silicon-Containing Compound E were not clear, the solutions were rated as “NG”. “Stability” in “Solubility of Compound E” in the tables was determined by allowing the respective aqueous solutions of the CD and the Silicon-Containing Compound E after preparation to stand at ambient temperature for a predetermined period and then visually evaluating the conditions (such as presence of precipitates and deposits) of the solutions.

[1] = DEXYPEARL 1 w/w %, Compound E 0.1 w/w %
[2] = DEXYPEARL 2 w/w %, Compound E 0.1 w/w %
[3] = DEXYPEARL 3 w/w %, Compound E 0.1 w/w %
[4] = DEXYPEARL 4 w/w %, Compound E 0.1 w/w %
[5] = DEXYPEARL 5 w/w %, Compound E 0.1 w/w %
[6] = DEXYPEARL 6 w/w %, Compound E 0.1 w/w %
[7] = DEXYPEARL 7 w/w %, Compound E 0.1 w/w %
[8] = DEXYPEARL 8 w/w %, Compound E 0.1 w/w %
[9] = DEXYPEARL 9 w/w %, Compound E 0.1 w/w %
[10] = DEXYPEARL 10 w/w %, Compound E 0.1 w/w %
[11] = DEXYPEARL 20 w/w %, Compound E 0.1 w/w %
[12] = DEXYPEARL 30 w/w %, Compound E 0.1 w/w %
[13] = DEXYPEARL 40 w/w %, Compound E 0.1 w/w %
[14] = ISOELEAT 1 w/w %, Compound E 0.1 w/w %
[15] = ISOELEAT 2 w/w %, Compound E 0.1 w/w %
[16] = ISOELEAT 3 w/w %, Compound E 0.1 w/w %
[17] = ISOELEAT 4 w/w %, Compound E 0.1 w/w %
[18] = ISOELEAT 5 w/w %, Compound E 0.1 w/w %
[19] = ISOELEAT 6 w/w %, Compound E 0.1 w/w %
[20] = ISOELEAT 7 w/w %, Compound E 0.1 w/w %
[21] = ISOELEAT 8 w/w %, Compound E 0.1 w/w %
[22] = ISOELEAT 9 w/w %, Compound E 0.1 w/w %
[23] = ISOELEAT 10 w/w %, Compound E 0.1 w/w %
[24] = ISOELEAT 20 w/w %, Compound E 0.1 w/w %
[25] = ISOELEAT 30 w/w %, Compound E 0.1 w/w %
[26] = ISOELEAT 40 w/w %, Compound E 0.1 w/w %
[27] = ISOELEAT 50 w/w %, Compound E 0.1 w/w %
[28] = α-CD 1 w/w %, Compound E 0.1 w/w %
[29] = α-CD 1 w/w %, Compound E 0.2 w/w %
[30] = α-CD 1 w/w %, Compound E 0.3 w/w %
[31] = α-CD 1 w/w %, Compound E 0.4 w/w %
[32] = α-CD 1 w/w %, Compound E 0.5 w/w %
[33] = α-CD 1 w/w %, Compound E 0.6 w/w %
[34] = α-CD 1 w/w %, Compound E 0.7 w/w %
[35] = α-CD 1 w/w %, Compound E 0.8 w/w %
[36] = α-CD 1 w/w %, Compound E 0.9 w/w %
[37] = α-CD 1 w/w %, Compound E 1 w/w %
[38] = α-CD 7 w/w %, Compound E 0.1 w/w %
[39] = α-CD 7 w/w %, Compound E 0.2 w/w %
[40] = α-CD 7 w/w %, Compound E 0.3 w/w %
[41] = α-CD 7 w/w %, Compound E 0.4 w/w %
[42] = α-CD 7 w/w %, Compound E 0.5 w/w %
[43] = α-CD 7 w/w %, Compound E 0.6 w/w %
[44] = α-CD 7 w/w %, Compound E 0.7 w/w %
[45] = α-CD 7 w/w %, Compound E 0.8 w/w %
[46] = α-CD 7 w/w %, Compound E 0.9 w/w %
[47] = α-CD 7 w/w %, Compound E 1 w/w %
[48] = β-CD 1 w/w %, Compound E 0.1 w/w %

CCCCCCCCCCCCCCCCCC[N+](C)(C)CCC[Si](OCC)(OCC)OCC.[Cl-] [Compound E, Octadecyl dimethyl(3-triethoxysilylpropyl)ammonium chloride]
Solubility of Compound E: Clarity [1]: OK
Solubility of Compound E: Stability [1]: OK
Solubility of Compound E: Clarity [2]: OK
Solubility of Compound E: Stability [2]: OK
Solubility of Compound E: Clarity [3]: OK
Solubility of Compound E: Stability [3]: OK
Solubility of Compound E: Clarity [4]: OK
Solubility of Compound E: Stability [4]: OK
Solubility of Compound E: Clarity [5]: OK
Solubility of Compound E: Stability [5]: OK
Solubility of Compound E: Clarity [6]: OK
Solubility of Compound E: Stability [6]: OK
Solubility of Compound E: Clarity [7]: OK
Solubility of Compound E: Stability [7]: OK
Solubility of Compound E: Clarity [8]: OK
Solubility of Compound E: Stability [8]: OK
Solubility of Compound E: Clarity [9]: OK
Solubility of Compound E: Stability [9]: OK
Solubility of Compound E: Clarity [10]: OK
Solubility of Compound E: Stability [10]: OK
Solubility of Compound E: Clarity [11]: OK
Solubility of Compound E: Stability [11]: NG
Solubility of Compound E: Clarity [12]: NG
Solubility of Compound E: Stability [12]: NG
Solubility of Compound E: Clarity [13]: NG
Solubility of Compound E: Stability [13]: NG
Solubility of Compound E: Clarity [14]: OK
Solubility of Compound E: Stability [14]: OK
Solubility of Compound E: Clarity [15]: OK
Solubility of Compound E: Stability [15]: OK
Solubility of Compound E: Clarity [16]: OK
Solubility of Compound E: Stability [16]: OK
Solubility of Compound E: Clarity [17]: OK
Solubility of Compound E: Stability [17]: OK
Solubility of Compound E: Clarity [18]: OK
Solubility of Compound E: Stability [18]: OK
Solubility of Compound E: Clarity [19]: OK
Solubility of Compound E: Stability [19]: OK
Solubility of Compound E: Clarity [20]: OK
Solubility of Compound E: Stability [20]: OK
Solubility of Compound E: Clarity [21]: OK
Solubility of Compound E: Stability [21]: OK
Solubility of Compound E: Clarity [22]: OK
Solubility of Compound E: Stability [22]: OK
Solubility of Compound E: Clarity [23]: NG
Solubility of Compound E: Stability [23]: NG
Solubility of Compound E: Clarity [24]: NG
Solubility of Compound E: Stability [24]: NG
Solubility of Compound E: Clarity [25]: NG
Solubility of Compound E: Stability [25]: NG
Solubility of Compound E: Clarity [26]: NG
Solubility of Compound E: Stability [26]: NG
Solubility of Compound E: Clarity [27]: NG
Solubility of Compound E: Stability [27]: NG
Solubility of Compound E: Clarity [28]: NG
Solubility of Compound E: Stability [28]: OK
Solubility of Compound E: Clarity [29]: NG
Solubility of Compound E: Stability [29]: OK
Solubility of Compound E: Clarity [30]: NG
Solubility of Compound E: Stability [30]: OK
Solubility of Compound E: Clarity [31]: NG
Solubility of Compound E: Stability [31]: OK
Solubility of Compound E: Clarity [32]: NG
Solubility of Compound E: Stability [32]: OK
Solubility of Compound E: Clarity [33]: NG
Solubility of Compound E: Stability [33]: OK
Solubility of Compound E: Clarity [34]: NG
Solubility of Compound E: Stability [34]: OK
Solubility of Compound E: Clarity [35]: NG
Solubility of Compound E: Stability [35]: NG
Solubility of Compound E: Clarity [36]: NG
Solubility of Compound E: Stability [36]: NG
Solubility of Compound E: Clarity [37]: NG
Solubility of Compound E: Stability [37]: NG
Solubility of Compound E: Clarity [38]: NG
Solubility of Compound E: Stability [38]: OK
Solubility of Compound E: Clarity [39]: NG
Solubility of Compound E: Stability [39]: OK
Solubility of Compound E: Clarity [40]: NG
Solubility of Compound E: Stability [40]: OK
Solubility of Compound E: Clarity [41]: NG
Solubility of Compound E: Stability [41]: OK
Solubility of Compound E: Clarity [42]: NG
Solubility of Compound E: Stability [42]: OK
Solubility of Compound E: Clarity [43]: NG
Solubility of Compound E: Stability [43]: OK
Solubility of Compound E: Clarity [44]: NG
Solubility of Compound E: Stability [44]: OK
Solubility of Compound E: Clarity [45]: NG
Solubility of Compound E: Stability [45]: OK
Solubility of Compound E: Clarity [46]: NG
Solubility of Compound E: Stability [46]: OK
Solubility of Compound E: Clarity [47]: NG
Solubility of Compound E: Stability [47]: OK
Solubility of Compound E: Clarity [48]: NG
Solubility of Compound E: Stability [48]: OK
Solubility of Compound E: Clarity (β-CD 1 w/w %, Compound E 0.2 w/w %): NG
